Test results as given in US8865771B2, “Amides useful as inhibitors of voltage-gated sodium channels” (Vertex Pharmaceuticals Incorporated, priority 2007, dated 2014).
Read-outs that look alike come from different tables or passages of the source.

Legend:
[1] = biological target: NaV 1.7 channel (Homo sapiens, UniProt Q15858); test: NaV inhibition, optical membrane potential assay (analogous mode); type: cell-based; conditions: activity against NaV 1.7 channel
Protocol: (§1) Compounds of the invention are useful as antagonists of voltage-gated sodium ion channels. Antagonist properties of test compounds were assessed as follows. Cells expressing the NaV of interest were placed into microtiter plates. After an incubation period, the cells were stained with fluorescent dyes sensitive to the transmembrane potential. The test compounds were added to the microtiter plate. The cells were stimulated with either a chemical or electrical means to evoke a NaV dependent membrane potential change from unblocked channels, which was detected and measured with trans-membrane potential-sensitive dyes. Antagonists were detected as a decreased membrane potential response to the stimulus. The optical membrane potential assay utilized voltage-sensitive FRET sensors described by Gonzalez and Tsien (See Gonzalez, J. E. and R. Y. Tsien (1995) “Voltage sensing by fluorescence resonance energy transfer in single cells” Biophys J 69(4): 1272-80, and Gonzalez, J. E. and R. Y. Tsien (1997) “Improved indicators of cell membrane potential that use fluorescence resonance energy transfer” Chem Biol 4(4): 269-77) in combination with instrumentation for measuring fluorescence changes such as the Voltage/Ion Probe Reader (VIPR®) (See Gonzalez, J. E., K. Oades, et al. (1999) “Cell-based assays and instrumentation for screening ion-channel targets” Drug Discov Today 4(9): 431-439).
(§2) C) VIPR® Optical Membrane Potential Assay Method with Electrical Stimulation
(§3) The following is an example of how NaV1.3 inhibition activity is measured using the optical membrane potential method#2. Other subtypes are performed in an analogous mode in a cell line expressing the NaV of interest.
(§4) The electrical stimulation instrument and methods of use are described in ION Channel Assay Methods PCT/US01/21652, herein incorporated by reference. The instrument comprises a microtiter plate handler, an optical system for exciting the coumarin dye while simultaneously recording the coumarin and oxonol emissions, a waveform generator, a current- or voltage-controlled amplifier, and a device for inserting electrodes in well. Under integrated computer control, this instrument passes user-programmed electrical stimulus protocols to cells within the wells of the microtiter plate.
(§5) Assay Protocol • 1. Insert or use electrodes into each well to be assayed. • 2. Use the current-controlled amplifier to deliver stimulation wave pulses for 3 s. Two seconds of pre-stimulus recording are performed to obtain the un-stimulated intensities. Five seconds of post-stimulation recording are performed to examine the relaxation to the resting state.
(§6) Data are analyzed and reported as normalized ratios of background-subtracted emission intensities measured in the 460 nm and 580 nm channels. Background intensities are then subtracted from each assay channel. Background intensities are obtained by measuring the emission intensities during the same time periods from identically treated assay wells in which there are no cells. The response as a function of time is then reported as the ratios obtained using the following formula: […]
(§7) The data is further reduced by calculating the initial (Ri) and final (Rf) ratios. These are the average ratio values during part or all of the pre-stimulation period, and during sample points during the stimulation period. The response to the stimulus ρ=Rf/Ri is then calculated.
(§8) Control responses are obtained by performing assays in the presence of a compound with the desired properties (positive control) and in the absence of pharmacological agents (negative control). Responses to the negative (N) and positive (P) controls are calculated as above. The activity A of the assay well relative to positive and negative controls is defined as: […]

[2] = biological target: T1, NaV1.8 (Homo sapiens, UniProt Q9Y5Y9); test: as above; type: cell-based; conditions: activity against NaV 1.8 channel
Protocol: as §1, §2, §3, §4, §5, §6, §7, §8
Target sequence in this assay (Q9Y5Y9 whole entry): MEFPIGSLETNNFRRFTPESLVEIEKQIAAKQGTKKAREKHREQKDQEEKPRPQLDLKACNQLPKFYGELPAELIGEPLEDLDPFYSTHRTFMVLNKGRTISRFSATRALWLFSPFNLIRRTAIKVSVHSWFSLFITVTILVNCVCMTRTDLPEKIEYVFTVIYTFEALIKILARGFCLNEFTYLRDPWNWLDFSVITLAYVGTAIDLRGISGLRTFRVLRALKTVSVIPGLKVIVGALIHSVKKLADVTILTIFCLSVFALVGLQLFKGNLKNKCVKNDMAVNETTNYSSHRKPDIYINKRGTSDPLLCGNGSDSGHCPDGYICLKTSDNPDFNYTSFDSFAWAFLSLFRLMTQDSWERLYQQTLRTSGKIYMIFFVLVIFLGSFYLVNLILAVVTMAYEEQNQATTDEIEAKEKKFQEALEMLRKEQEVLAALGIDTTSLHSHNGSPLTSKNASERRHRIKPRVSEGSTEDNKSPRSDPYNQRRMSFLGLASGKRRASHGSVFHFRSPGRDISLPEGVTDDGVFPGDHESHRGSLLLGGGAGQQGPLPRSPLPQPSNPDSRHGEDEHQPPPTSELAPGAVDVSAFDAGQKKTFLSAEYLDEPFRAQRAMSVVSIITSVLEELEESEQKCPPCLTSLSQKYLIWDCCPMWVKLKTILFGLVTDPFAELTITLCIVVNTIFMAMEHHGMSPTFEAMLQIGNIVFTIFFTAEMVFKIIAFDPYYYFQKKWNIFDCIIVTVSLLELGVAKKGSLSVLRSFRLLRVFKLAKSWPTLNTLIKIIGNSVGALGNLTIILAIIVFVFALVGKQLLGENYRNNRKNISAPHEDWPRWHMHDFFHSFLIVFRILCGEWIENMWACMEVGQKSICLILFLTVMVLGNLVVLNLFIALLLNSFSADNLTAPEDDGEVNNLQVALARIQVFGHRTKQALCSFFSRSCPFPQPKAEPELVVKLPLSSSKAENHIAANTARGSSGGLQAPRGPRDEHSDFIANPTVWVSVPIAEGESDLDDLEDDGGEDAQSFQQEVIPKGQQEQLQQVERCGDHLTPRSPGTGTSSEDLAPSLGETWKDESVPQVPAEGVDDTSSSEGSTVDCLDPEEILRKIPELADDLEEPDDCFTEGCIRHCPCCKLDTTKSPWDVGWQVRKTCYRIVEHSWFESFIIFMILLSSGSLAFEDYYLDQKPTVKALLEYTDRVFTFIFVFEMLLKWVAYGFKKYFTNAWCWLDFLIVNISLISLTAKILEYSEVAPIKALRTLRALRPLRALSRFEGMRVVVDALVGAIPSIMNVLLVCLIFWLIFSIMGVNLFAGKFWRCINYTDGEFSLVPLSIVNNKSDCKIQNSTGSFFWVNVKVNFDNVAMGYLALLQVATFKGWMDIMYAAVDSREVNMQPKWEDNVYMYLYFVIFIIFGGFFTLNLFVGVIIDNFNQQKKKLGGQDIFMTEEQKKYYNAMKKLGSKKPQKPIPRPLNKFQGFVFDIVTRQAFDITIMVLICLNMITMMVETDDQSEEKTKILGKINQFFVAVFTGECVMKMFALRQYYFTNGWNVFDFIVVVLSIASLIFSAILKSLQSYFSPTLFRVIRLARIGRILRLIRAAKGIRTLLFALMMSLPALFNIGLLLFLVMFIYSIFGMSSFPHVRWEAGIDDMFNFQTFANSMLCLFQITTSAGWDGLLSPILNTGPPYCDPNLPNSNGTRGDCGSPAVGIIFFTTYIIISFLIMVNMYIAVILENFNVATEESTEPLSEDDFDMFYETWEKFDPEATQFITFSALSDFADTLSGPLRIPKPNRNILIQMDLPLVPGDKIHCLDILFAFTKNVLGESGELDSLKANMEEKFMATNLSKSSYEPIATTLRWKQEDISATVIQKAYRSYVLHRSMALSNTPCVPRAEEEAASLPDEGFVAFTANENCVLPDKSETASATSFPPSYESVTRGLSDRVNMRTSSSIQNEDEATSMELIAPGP

[3] = biological target: T2, NaV1.3 (Homo sapiens, UniProt Q9NY46); test: NaV inhibition, VIPR optical membrane potential assay with electrical stimulation; type: cell-based; design: expressed in transfected cells; host or cells: HEK293; conditions: activity against NaV 1.3 channel
Protocol: as §1, §2, §3
HEK293 cells stably expressing NaV 1.3 are plated into 96-well microtiter plates. After an appropriate incubation period, the cells are stained with the voltage sensitive dyes CC2-DMPE/DiSBAC2(3) as follows.
10 mM CC2-DMPE is vortexed with an equivalent volume of 10% pluronic, followed by vortexing in required amount of HBSS containing 10 mM HEPES. Each cell plate will require 5 mL of 2×CC2-DMPE. 50 μL of 2×CC2-DMPE is to wells containing washed cells, resulting in a 10 μM final staining concentration. The cells are stained for 30 minutes in the dark at RT.
The 2×DiSBAC2(3) solution can be used to solvate compound plates. Note that compound plates are made at 2× drug concentration. Wash stained plate again, leaving residual volume of 50 μL. Add 50 uL/well of the 2×DiSBAC2(3) w/ABSC1. Stain for 30 minutes in the dark at RT.
as §4, §5, §6

[4] = biological target: T2, NaV1.3; conditions: read-out: TTX IC50; cited from earlier work
[5] = biological target: NaV1.6 (Homo sapiens, UniProt Q9UQD0); conditions: read-out: TTX IC50; cited from earlier work
[6] = biological target: T1, NaV1.8; conditions: read-out: TTX IC50; cited from earlier work
Target sequence in this assay (Q9Y5Y9 whole entry, looked up): as the sequence (Q9Y5Y9 whole entry) above

[7] = biological target: NaV1.9 (Homo sapiens, UniProt Q9UI33); conditions: read-out: TTX IC50; cited from earlier work

Sequence of NaV 1.7 channel (Q15858 whole entry): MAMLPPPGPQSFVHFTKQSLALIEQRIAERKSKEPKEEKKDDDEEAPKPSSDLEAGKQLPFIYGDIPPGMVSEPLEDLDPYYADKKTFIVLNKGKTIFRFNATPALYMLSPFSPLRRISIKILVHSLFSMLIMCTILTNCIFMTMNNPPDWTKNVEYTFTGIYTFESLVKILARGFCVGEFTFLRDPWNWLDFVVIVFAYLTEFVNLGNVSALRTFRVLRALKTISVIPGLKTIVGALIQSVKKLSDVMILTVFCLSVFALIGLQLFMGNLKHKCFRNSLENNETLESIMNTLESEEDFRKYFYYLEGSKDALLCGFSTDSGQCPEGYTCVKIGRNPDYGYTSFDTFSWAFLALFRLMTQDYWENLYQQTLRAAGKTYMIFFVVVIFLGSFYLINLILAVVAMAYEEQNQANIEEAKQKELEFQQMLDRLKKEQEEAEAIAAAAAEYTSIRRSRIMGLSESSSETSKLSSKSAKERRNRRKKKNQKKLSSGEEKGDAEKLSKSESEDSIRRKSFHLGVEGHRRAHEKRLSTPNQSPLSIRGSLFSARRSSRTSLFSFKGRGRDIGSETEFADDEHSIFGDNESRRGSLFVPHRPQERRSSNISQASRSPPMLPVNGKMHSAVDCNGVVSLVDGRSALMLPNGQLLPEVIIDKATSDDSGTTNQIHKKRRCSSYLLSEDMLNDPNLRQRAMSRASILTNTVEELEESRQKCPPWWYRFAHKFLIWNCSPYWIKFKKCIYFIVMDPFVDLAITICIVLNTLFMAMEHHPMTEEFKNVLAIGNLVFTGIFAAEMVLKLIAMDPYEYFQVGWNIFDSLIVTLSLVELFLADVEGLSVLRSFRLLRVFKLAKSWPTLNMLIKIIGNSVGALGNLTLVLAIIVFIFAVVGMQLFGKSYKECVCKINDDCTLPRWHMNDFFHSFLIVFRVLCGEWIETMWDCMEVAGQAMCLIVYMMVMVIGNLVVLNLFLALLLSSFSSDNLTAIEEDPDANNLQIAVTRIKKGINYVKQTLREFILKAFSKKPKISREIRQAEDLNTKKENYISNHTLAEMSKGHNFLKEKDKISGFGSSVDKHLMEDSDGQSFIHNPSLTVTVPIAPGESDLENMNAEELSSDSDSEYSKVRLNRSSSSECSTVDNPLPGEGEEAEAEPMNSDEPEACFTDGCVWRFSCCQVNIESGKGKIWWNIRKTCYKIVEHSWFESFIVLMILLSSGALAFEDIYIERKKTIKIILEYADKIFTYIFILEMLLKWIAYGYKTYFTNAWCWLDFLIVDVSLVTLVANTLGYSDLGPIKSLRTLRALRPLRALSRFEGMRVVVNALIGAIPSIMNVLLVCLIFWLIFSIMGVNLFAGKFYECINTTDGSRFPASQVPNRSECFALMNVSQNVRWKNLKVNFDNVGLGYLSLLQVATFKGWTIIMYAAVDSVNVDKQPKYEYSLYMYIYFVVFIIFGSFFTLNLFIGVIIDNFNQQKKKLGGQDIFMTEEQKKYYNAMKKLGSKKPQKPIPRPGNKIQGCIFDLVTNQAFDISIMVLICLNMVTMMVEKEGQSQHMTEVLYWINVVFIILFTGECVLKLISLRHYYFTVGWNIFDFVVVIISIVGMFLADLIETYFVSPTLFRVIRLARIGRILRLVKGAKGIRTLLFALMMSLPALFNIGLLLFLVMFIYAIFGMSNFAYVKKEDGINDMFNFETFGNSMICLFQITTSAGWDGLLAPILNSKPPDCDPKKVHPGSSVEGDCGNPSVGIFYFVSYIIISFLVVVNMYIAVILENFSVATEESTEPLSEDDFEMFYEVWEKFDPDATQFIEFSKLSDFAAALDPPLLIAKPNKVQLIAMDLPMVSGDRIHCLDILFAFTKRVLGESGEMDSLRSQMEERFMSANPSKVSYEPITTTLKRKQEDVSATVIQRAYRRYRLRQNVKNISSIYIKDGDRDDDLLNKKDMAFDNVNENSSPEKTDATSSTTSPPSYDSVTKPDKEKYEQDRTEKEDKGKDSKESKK

SMILES	IC50 [1]	IC50 [2]	IC50 [3]	IC50 [4]	IC50 [5]	IC50 [6]	IC50 [7]
NS(=O)(=O)c1cncc(NC(=O)c2ccc(C(F)(F)F)cc2Oc2ccc(C(F)(F)F)nc2)c1 [Compound 5, N-(5-Sulfamoylpyridin-3-yl)-4-(trifluoromethyl)-2-(6-(trifluoromethyl)pyridin-3-yloxy)benzamide]	> 20 µM	2 to 10 µM	> 20 µM	–	–	–	–
CC(C)(C)c1ccc(C(=O)Nc2cncc(S(N)(=O)=O)c2)c(Oc2cccc(C(F)(F)F)n2)c1 [Compound 4]	> 20 µM	< 2 µM	10 to 20 µM	–	–	–	–
CC(C)(C)c1ccc(C(=O)Nc2cncc(S(N)(=O)=O)c2)c(Oc2ccc(C(F)(F)F)nc2)c1 [Compound 3]	2 to 10 µM	< 2 µM	10 to 20 µM	–	–	–	–
Cc1ncccc1Oc1cc(C(C)(C)C)ccc1C(=O)Nc1cncc(S(N)(=O)=O)c1 [Compound 1]	> 20 µM	< 2 µM	> 20 µM	–	–	–	–
CC(C)(C)c1ccc(C(=O)Nc2cncc(S(C)(=O)=O)c2)c(Oc2ccc(C(F)(F)F)nc2)c1 [Compound 6, 4-tert-Butyl-N-(5-(methylsulfonyl)pyridin-3-yl)-2-(6-(trifluoromethyl)pyridin-3-yloxy)benzamide]	> 20 µM	2 to 10 µM	10 to 20 µM	–	–	–	–
CC(C)(C)c1ccc(C(=O)Nc2cncc(S(C)(=O)=O)c2)c(Oc2cccc(C(F)(F)F)n2)c1 [Compound 9]	10 to 20 µM	2 to 10 µM	10 to 20 µM	–	–	–	–
CC(C)(C)c1ccc(C(=O)Nc2cncc(S(N)(=O)=O)c2)c(Oc2ccc(F)cc2Cl)c1 [Compound 2]	2 to 10 µM	< 2 µM	2 to 10 µM	–	–	–	–
CS(=O)(=O)c1cncc(NC(=O)c2ccc(C(F)(F)F)cc2Oc2ccc(C(F)(F)F)nc2)c1 [Compound 8]	> 20 µM	2 to 10 µM	> 20 µM	–	–	–	–
CC(C)(C)c1ccc(C(=O)Nc2cncc(S(C)(=O)=O)c2)c(Oc2ccc(F)cc2Cl)c1 [Compound 7]	10 to 20 µM	< 2 µM	10 to 20 µM	–	–	–	–
NC1=N[C@H](O)[C@H]2[C@H]3O[C@]4(O)O[C@@H]([C@@H](O)[C@@]2(N1)[C@@H]4O)[C@]3(O)CO [TTX, tetrodotoxin]	–	–	–	0.015 µM	0.006 µM	> 50 µM	1 µM
